In patent publication US11471451B2, “Uses of crenolanib” (Arog Pharmaceuticals, Inc., priority 2019, dated 2022):

Columns and labels:
[1] = tested on: FLT3 Variants, FLT3 Activating Mutations, and Co-Occurring Mutations; test: Example 1: single cell DNA sequencing (TAPESTRI) of longitudinal bone marrow samples; type: in vivo, human; conditions: for Variant allele frequency FLT3 D835E: D1 0%; for Variant allele frequency DNMT3A R882H / Variant allele frequency FLT3 D839G / Variant allele frequency KRAS G12D / Variant allele frequency NRAS G13V: D1 1%; for Variant allele frequency FLT3 N841K: D1 18%; for Variant allele frequency FLT3 A680V: D1 20%; for Variant allele frequency FLT3 ITD: D1 22%; for Variant allele frequency DNMT3A R882C: D1 41%; for Variant allele frequency NPM1 dupTCTG: D1 44%
Experimental: In one aspect of the invention pertains to single cell sequencing analysis of recurrent AML genetic mutations that is performed using the […]™ platform. To use said platform, a cell suspension is introduced onto the platform using microfluidics, and each cell is then encapsulated in an oil droplet along with a protease to aid in DNA isolation. Cells are then lysed and loaded back onto the […]™ platform, where each single nucleus is encapsulated with a unique DNA based barcode linked to acrylamide-based beads and PCR master mix and primer sets against recurrent AML mutant genes in an oil droplet. These droplets are directly deposited in PCR tubes and exposed to UV light to release the barcodes. Subsequently the barcoded genomic DNA within the droplets can be amplified according to standard PCR amplification techniques. In this same aspect the PCR products are then isolated using standard molecular biology techniques and then libraries prepared for next-generation sequencing compatible with Illumina platforms (including MiSeq, HiSeq, and NovaSeq), followed by sequencing said libraries on one of the validated Illumina platforms (including MiSeq, HiSeq, and NovaSeq). In the same aspect, the sequencing contains at least 1,000,000 reads per sample, and the allele dropout out rate is at most 10%. Next-generation sequencing data can be analyzed at least one of but not limited to using […] Pipeline to generate genetic variant calls followed by […] Insight for final analysis including determining co-occurring genetic mutations, or standard next generation sequencing (NGS) analysis methods known to one skilled in the art.
The present invention includes the follow method of preparing single cell DNA sequencing. One example is a single-cell multi-omic assay for detecting single nucleotide variants, copy number variants, and protein changes simultaneously from the same cell, such as […]™. Mononuclear cells were isolated from bone marrow samples via FICOLL-PAQUE® gradient, resuspended in a 10% DMSO solution and frozen at −20° C. until needed. Single cell suspensions were prepared from thawed mononuclear cell samples to final concentrations indicated by the manufacturer's instructions, then loaded onto the […]™ instrument. According to the manufacturer, the […]™ platform uses microfluidics to separate single cells, encapsulate each cell within a […] droplet, proteases are added to each droplet to aid in DNA isolation. Cell encapsulation, targeted PCR, and next generation library preparation were performed per the […]™ platform's manufacturer's instructions using the […]™ platform and the Thermo Fisher SimpliAmp thermal cycler (cat #A24811, or equivalent). The prepared single-cell DNA library was sequenced using Illumina's MiSeq instrument, per the manufacturer's instructions. Analysis of these next-generation sequencing data was performed by first processing the sequencing data using the […] Pipeline (available on the Mission Bio website) to ultimately generate variant calls. The resultant loom files are then imported into the […]™ bioinformatics software, Insight, which is used to identify relevant variants, including co-occurring and rare mutations.
Longitudinal bone marrow samples obtained throughout the course of treatment were analyzed using single cell sequencing. […]

[2] = tested on: relapsed/refractory AML with FLT3-ITD and FLT3-D835 mutations; test: Example 6: relapsed/refractory AML patient after sorafenib; single agent crenolanib besylate; type: in vivo, human
Experimental: A person was diagnosed with AML in 2014. […] To treat this patient's disease and overcome the FLT3-ITD and FLT3-D835 mutations, this patient was provided oral crenolanib besylate on a clinical trial for relapsed/refractory AML patients with activating FLT3 mutations. […] The patient was treated with single agent crenolanib besylate at a dose of 200 mg/m^2 three times daily.

[3] = Consolidation (D237), HiDAC + crenolanib
[4] = Induction (D53), induction chemotherapy + crenolanib
[5] = Maintenance (D294), single agent crenolanib besylate
[6] = Maintenance (D406), completion of single agent maintenance

CC1(COc2ccc3c(c2)ncn3-c2ccc3cccc(N4CCC(N)CC4)c3n2)COC1 [crenolanib, 4-Piperidinamine, 1-[2-[5-[(3-methyl-3-oxetanyl)methoxy]-1H-benzimidazol-1-yl]-8-quinolinyl]]
Variant allele frequency FLT3 D835E [1, 3]: 0%
Variant allele frequency DNMT3A R882H [1, 3]: 1%
Variant allele frequency FLT3 D839G [1, 3]: 1%
Variant allele frequency KRAS G12D [1, 3]: 1%
Variant allele frequency NRAS G13V [1, 3]: 0%
Variant allele frequency FLT3 N841K [1, 3]: 0%
Variant allele frequency FLT3 A680V [1, 3]: 1%
Variant allele frequency FLT3 ITD [1, 3]: 0%
Variant allele frequency DNMT3A R882C [1, 3]: 5%
Variant allele frequency NPM1 dupTCTG [1, 3]: 0%
Variant allele frequency FLT3 D835E [1, 4]: 1%
Variant allele frequency DNMT3A R882H [1, 4]: 3%
Variant allele frequency FLT3 D839G [1, 4]: 3%
Variant allele frequency KRAS G12D [1, 4]: 0%
Variant allele frequency NRAS G13V [1, 4]: 0%
Variant allele frequency FLT3 N841K [1, 4]: 0%
Variant allele frequency FLT3 A680V [1, 4]: 0%
Variant allele frequency FLT3 ITD [1, 4]: 3%
Variant allele frequency DNMT3A R882C [1, 4]: 0%
Variant allele frequency NPM1 dupTCTG [1, 4]: 4%
Variant allele frequency FLT3 D835E [1, 5]: 0%
Variant allele frequency DNMT3A R882H [1, 5]: 0%
Variant allele frequency FLT3 D839G [1, 5]: 0%
Variant allele frequency KRAS G12D [1, 5]: 0%
Variant allele frequency NRAS G13V [1, 5]: 0%
Variant allele frequency FLT3 N841K [1, 5]: 0%
Variant allele frequency FLT3 A680V [1, 5]: 0%
Variant allele frequency FLT3 ITD [1, 5]: 0%
Variant allele frequency DNMT3A R882C [1, 5]: 6%
Variant allele frequency NPM1 dupTCTG [1, 5]: 0%
Variant allele frequency FLT3 D835E [1, 6]: 0%
Variant allele frequency DNMT3A R882H [1, 6]: 0%
Variant allele frequency FLT3 D839G [1, 6]: 0%
Variant allele frequency KRAS G12D [1, 6]: 0%
Variant allele frequency NRAS G13V [1, 6]: 0%
Variant allele frequency FLT3 N841K [1, 6]: 0%
Variant allele frequency FLT3 A680V [1, 6]: 0%
Variant allele frequency FLT3 ITD [1, 6]: 0%
Variant allele frequency DNMT3A R882C [1, 6]: 8%
Variant allele frequency NPM1 dupTCTG [1, 6]: 0%
remaining FLT3 and KRAS mutations ([1]; after approximately two months of single agent maintenance therapy): cleared
remaining FLT3 and KRAS mutations ([1]; at the completion of maintenance therapy): remained absent
all variant FLT3 clones ([1]; by day 79 into maintenance): cleared
mutant containing cancer cell populations (FIGS. 2-4 scatter plots) ([1]; diagnosis versus 35 days following the start of induction): eliminated the vast majority
NPM1 and FLT3-ITD ([1]; following consolidation): clearance
variant FLT3 and FLT3 activating mutations (FIG. 1) ([1]; induction chemotherapy with crenolanib, HiDAC consolidation with crenolanib, single agent crenolanib maintenance): eliminated
reduction of the allelic ratio of one of the FLT3-ITD mutations ([2]; day 27): 75%
second ITD mutation ([2]; day 27): not detectable
response ([2]; day 27, crenolanib single agent therapy): partial morphologic remission
bone marrow blasts ([2]; person, baseline 68%, day 27, single agent crenolanib besylate 200 mg/m^2 three times daily): 7%
